Consider one molecule from patent publication US20240033737A1, “DEVICES AND METHODS FOR CONTINUOUS DIELECTROPHORESIS CELL SORTING TO ISOLATE DIFFERENT POPULATIONS OF CELLS, AND APPLICATIONS THEREOF” (The Regents of the University of California, priority 2022, published 2024).

Assay type in all cases: cell-based
The subject of data set [1] is D54 cells. The data set is described as follows: Recovery of adherent cells after buffer incubation and plating (phase contrast imaging, confluency by ImageJ). Particulars: 5 μM ROCKi in DEP buffer, 6 hours incubation, among DEP buffers, N=1. How it is done:
(A) Schematic describes experimental paradigm to test D54 viability after incubation in cell culture media or DEP buffer. Adherent D54 cells were dissociated then resuspended in media or DEP buffer and incubated on ice or at room temperature (RT). Cell viability was tested immediately after incubation by trypan blue. Equivalent numbers of cells were plated per condition and adherent cells observed after 1-2 days by phase contrast microscopy to assess cell recovery. (B) Cell viability after 6-hour incubation remained high for all conditions. Viability of D54 cells in DEP buffer may be slightly lower than that of cells in media. N=1. […]
(§1) DEP buffer (DB): 8.5% w/v sucrose, 0.3% w/v glucose, 0.725% RPMI. […] (B) Cells were plated after incubation and the confluency (% culture surface area covered by cells) of adherent cells measured 1 day later using ImageJ. […]
(§2) Assessing the viability of D54 cells in a DEP buffer used for sorting mouse and human neural stem and progenitor cells. […] Further, the effect of temperature of the buffer (ice or room temperature) on cell viability was also evaluated. […] After the 6-hour buffer incubation, the cells were plated under normal growth conditions and assessed by phase contrast imaging 1-2 days later to assess cell survival and growth. […]

Data set [2] has as its system D54 cells. Description: XTT assay of cell numbers after plating and growth for 2 days. To be noted: 5 μM ROCKi in DEP buffer vs DEP buffer without ROCKi, 6-hour incubation. The procedure: (§3) FIG. 2A-D presents optimization of buffer conditions for DEP-based sorting of GBM cells. (A) Viability of D54 cells immediately after 6-hour RT incubation in regular growth media, DEP buffer, or DEP buffer supplemented with 5 μM ROCKi was measured by trypan blue staining. […] (B) After 6-hour incubation in media or buffers, D54 cells were plated in normal growth conditions and the number of cells measured after 2 days by XTT assay. […] Acutely isolated cells (Media control, 0 h) served as a control. (D) D54 cells were plated after 6-hour incubation in buffers and after 1 day were exposed to TMZ to assess TMZ resistance. TMZ IC50 is shown as fold change relative to media control, 0 h, and no difference in TMZ resistance was detected across samples. Error bars show SD. N≥3, one-way ANOVA, Tukey post hoc for multiple comparisons, *p<0.05, **p<0.01, ***p<0.001, ****p<0.0001.
D54 cell viability studies conducted with a modified DEP buffer that included ROCKi. ROCK inhibitor (ROCKi) was included in the DEP buffer at concentrations ranging from 1-10 μM. […] Addition of 5 μM ROCKi to the DEP buffer improved D54 acute viability, as assessed by trypan blue staining, and led to greater than 90% viable cells (see FIG. 2A). An XTT assay was used to measure cell numbers after plating and growth for 2 days.
For orientation: Formazan colour is commonly taken as a measure of viable cells.

In data set [3] the test system is D54 cells. The data set is described as follows: D54 viability by trypan blue staining immediately after incubation in media or DEP buffer. To be noted: for viability in the DEP buffer: 6-hour incubation. The procedure: (A) Schematic describes experimental paradigm to test D54 viability after incubation in cell culture media or DEP buffer. Adherent D54 cells were dissociated then resuspended in media or DEP buffer and incubated on ice or at room temperature (RT). Cell viability was tested immediately after incubation by trypan blue. Equivalent numbers of cells were plated per condition and adherent cells observed after 1-2 days by phase contrast microscopy to assess cell recovery. (B) Cell viability after 6-hour incubation remained high for all conditions. Viability of D54 cells in DEP buffer may be slightly lower than that of cells in media. N=1. (C) Phase-contrast images of D54 cells stained with trypan blue after 6-hour incubation show high cell viability and increased clustering of cells incubated in media at RT. (D) Phase contrast images of adherent D54 cells one day after 6-hour incubation in media or DEP buffer. Cells incubated in media at RT show the best recovery, indicated by cell number and cell morphology. (E) Phase contrast images of adherent D54 cells one day after 0-6 hour incubation in media or DEP buffer. Cell recovery decreases with increasing incubation time in DEP buffer.
as §3, with “N≥3, one-way ANOVA, Tukey post hoc for multiple comparisons, *p<0.05, **p<0.01, ***p<0.001, ****p<0.0001.” left out
(A) Viability of D54 cells immediately after 6-hour incubation in regular growth media, DEP buffer, or DEP buffer supplemented with 1, 5, or 10 μM ROCKi was measured by trypan blue staining. […]
as §1, §2

Data set [4] relates to D54 cells. The data set is described as follows: TMZ resistance (TMZ IC50 fold change) of cells plated after buffer incubation. To be noted: 5 μM ROCKi in DEP buffer; cells plated in normal growth medium without ROCKi. The procedure: as §3
(A) Viability of D54 cells immediately after 6-hour incubation in regular growth media, DEP buffer, or DEP buffer supplemented with 1, 5, or 10 μM ROCKi was measured by trypan blue staining. Acutely isolated cells (Media control, 0 h) served as a control. […] (C) There was no significant difference in the diameters of D54 cells in any of the conditions. (D) There was no significant difference in TMZ resistance as measured by fold change in IC50 relative to acutely isolated cells (Media control, 0 h). Error bars show SD. […]

Take `C[C@@H](N)[C@H]1CC[C@H](C(=O)Nc2ccncc2)CC1` [ROCKi, Y27632]: the “confluency of adherent cells 1 day after plating” value in the data set with D54 cells [1] is listed as “the most confluency”. Moreover, the “cell numbers after plating and growth for 2 days (XTT)” value in the data set with D54 cells [2] was “significantly increased cell numbers”. Moreover, the “viability in the DEP buffer” value with D54 cells [3] (1 μM ROCKi in DEP buffer) and in the data set on D54 cells [3] (5 μM ROCKi in DEP buffer) was “improved viability” throughout. In the data set on D54 cells [3] (5 μM ROCKi in DEP buffer, 6-hour RT incubation), the “viable cells (acute viability, trypan blue)” value is given as “greater than 90%”. The “best concentration for D54 cell viability” value in the data set on D54 cells [3] (ROCKi in DEP buffer at 1-10 μM) came out at 5 µM. In addition, the “TMZ resistance (fold change in TMZ IC50)” value in the data set on D54 cells [4] is given as “did not alter TMZ resistance”.
